Earlier results, collected in patent US20240180821A1, “ORALLY DISINTEGRATING FILM COMPOSITION OF KETOROLAC AND A METHOD OF PREPARATION THEREOF” (LN LABORATORIES PVT LTD, priority 2021, published 2024).

O=C(c1ccccc1)c1ccc2n1CCC2C(=O)O (racemic) [Ketorolac tromethamine, (±)-5-Benzoyl-2,3-dihydro-1H-pyrrolizine-1-carboxylic acid, compound with 2-amino-2-(hydroxymethyl)-1,3-propanediol]
pKa: 3.5
